Measured values published in patent US9566312B2, “Cyclic peptides and use as medicines” (priority 2012, dated 2017).
Like-named read-outs stand apart in the source and are kept apart here. Starred links: 1 amine or outer side, 2 acyl side, 3 side chain; linkers in the order of their positions; H or OH if unused. Non-standard residues stand in square brackets, D forms with d. Residues, ends and D or L forms follow the SMILES beside them. X27 = C[C@H](COCC(=O)N1CCN(C2CCOCC2)CC1)[C@@H](C(=O)[*:2])N(C)[*:1]; X31 = C[C@H](CN1C[C@H](C)OC[C@@H]1C)[C@@H](C(=O)[*:2])N(C)[*:1]; X38 = C[C@@H](CN1CCN2C(=O)OCC2C1)[C@@H](C(=O)[*:2])N(C)[*:1]; X35 = C[C@H](CN1CCC2(CC1)OCCO2)[C@@H](C(=O)[*:2])N(C)[*:1]; X41 = CC(C)N1CCN(C[C@@H](C)[C@@H](C(=O)[*:2])N(C)[*:1])CC1; MeBmt = C/C=C/C[C@@H](C)[C@@H](O)[C@H](NC)C(=O)O; NMeL = CN[C@@H](CC(C)C)C(=O)O; NMeV = CN[C@H](C(=O)O)C(C)C; dNMeA = CN[C@H](C)C(=O)O; Abu = CC[C@H](N)C(=O)O

Legend:
cyclophilin A (CypA) = cyclophilin A (CypA) (Homo sapiens (Human), UniProt P62937); test: Inhibitor binding to cyclophilin proteins by SPR, CypA; set-up: unit not given here; details: 1:1 binding model;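 also: Single-cycle kinetics on a Biacore T200, compound injected at several concentrations for 1 min each at 50 µL/min, then 10 min dissociation, in HEPES pH 7.4 buffer with 3% DMSO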
cyclophilin A (CypA), sequence (P62937 whole entry): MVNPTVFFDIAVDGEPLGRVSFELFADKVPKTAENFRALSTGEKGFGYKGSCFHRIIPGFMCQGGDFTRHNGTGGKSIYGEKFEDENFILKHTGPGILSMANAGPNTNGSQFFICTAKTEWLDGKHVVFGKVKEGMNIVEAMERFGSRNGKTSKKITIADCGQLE

cyclophilin B (CypB) = cyclophilin B (CypB) (Homo sapiens (Human), UniProt P23284); test: Inhibitor binding to cyclophilin proteins by SPR, CypB; set-up: unit not given here; details: 1:1 binding model
cyclophilin B (CypB), sequence (P23284 34-216): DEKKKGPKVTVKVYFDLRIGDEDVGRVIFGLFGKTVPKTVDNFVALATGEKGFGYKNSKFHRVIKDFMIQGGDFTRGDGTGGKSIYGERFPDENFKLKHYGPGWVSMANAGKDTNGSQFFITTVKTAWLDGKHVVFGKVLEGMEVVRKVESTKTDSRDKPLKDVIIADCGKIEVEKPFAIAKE
How it was run: (§1)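 Running buffer: 10 mM HEPES pH 7.4, 150 mM NaCl, 0.05% P20, 3% DMSO, with compound present. Capture of avi-tagged mono-biotinylated cyclophilin; single-cycle series, 1 min contact, 10 min dissociation. Rates and affinity fitted to a 1:1 interaction model.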

CypF = CypF (Homo sapiens (Human), UniProt P30405); test: Inhibitor binding to cyclophilin proteins by SPR, CypF; details: 1:1 binding model
CypF, sequence (P30405 30-207): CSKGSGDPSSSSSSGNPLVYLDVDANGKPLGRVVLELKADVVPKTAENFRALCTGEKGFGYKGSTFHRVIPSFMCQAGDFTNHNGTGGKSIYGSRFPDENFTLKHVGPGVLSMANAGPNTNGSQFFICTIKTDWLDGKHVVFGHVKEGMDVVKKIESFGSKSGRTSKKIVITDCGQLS
How it was run: as §1

[1] = tested on: genotype 1b subgenomic HCV replicon in Huh7.5 cells; type: cell-based, hepatitis C virus; details: read-out: RPLN-1b IC50
How it was run: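 Replicon inhibition read as renilla luciferase signal versus DMSO controls after 72 h incubation, in Huh7.5 cells harbouring a genotype 1b subgenomic replicon; medium phenol red-free DMEM lacking G418. CC50 determined in parallel via Cell Titer-Glo.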

[2] = tested on: peripheral blood mononuclear cells (PBMC); test: Anti-proliferative or immunosuppressive activity, BrdU incorporation in PHA-stimulated PBMC; type: cell-based; details: PHA 3 μg/ml, 60 hour compound treatment; read-out: EMV PBMC IC50
How it was run: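 BrdU ELISA read-out of DNA synthesis in freshly isolated PBMCs (two donors, 30,000 cells/well, X-VIVO 15). T-cell proliferation triggered with phytohemagglutinin at 3 μg/ml.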

[3] = biological target: organic anion transporting polypeptide 1B1 (OATP1B1) (Homo sapiens (Human), UniProt Q9Y6L6); test: OATP assay in CHO-OATP1B1 cells;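 also: inhibition of probe substrate uptake into the cells, ten minutes exposure, accumulated substrate read by fluorescence once cells were lysed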
organic anion transporting polypeptide 1B1 (OATP1B1), sequence (Q9Y6L6 whole entry): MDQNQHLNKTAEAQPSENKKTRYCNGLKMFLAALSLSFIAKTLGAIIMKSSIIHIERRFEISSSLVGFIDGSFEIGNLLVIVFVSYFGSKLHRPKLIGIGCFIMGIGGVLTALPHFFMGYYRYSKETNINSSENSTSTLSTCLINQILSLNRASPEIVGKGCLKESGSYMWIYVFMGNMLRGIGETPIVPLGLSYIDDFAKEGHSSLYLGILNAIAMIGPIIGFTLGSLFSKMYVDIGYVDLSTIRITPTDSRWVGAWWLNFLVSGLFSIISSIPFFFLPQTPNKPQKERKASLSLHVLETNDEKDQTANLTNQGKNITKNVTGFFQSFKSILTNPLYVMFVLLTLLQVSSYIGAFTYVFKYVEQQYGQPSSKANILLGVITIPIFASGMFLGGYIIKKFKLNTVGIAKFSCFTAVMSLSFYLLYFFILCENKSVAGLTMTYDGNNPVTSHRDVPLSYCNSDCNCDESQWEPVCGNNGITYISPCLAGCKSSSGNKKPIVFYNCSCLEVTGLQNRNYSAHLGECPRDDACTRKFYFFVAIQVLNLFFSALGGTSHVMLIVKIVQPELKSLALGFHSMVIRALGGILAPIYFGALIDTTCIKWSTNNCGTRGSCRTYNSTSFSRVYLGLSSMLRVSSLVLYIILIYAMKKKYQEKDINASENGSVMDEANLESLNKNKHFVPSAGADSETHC

[4] = genotype 1b replicon, 72 h incubation

For `C/C=C/C[C@@H](C)[C@@H](O)[C@H]1C(=O)N[C@@H](CC)C(=O)N(C)[C@H](C)C(=O)N(C)[C@@H]([C@H](C)CN2C[C@H](C)OC[C@@H]2C)C(=O)N[C@@H](C(C)C)C(=O)N(C)[C@@H](CC(C)C)C(=O)N[C@@H](C)C(=O)N[C@H](C)C(=O)N(C)[C@@H](CC(C)C)C(=O)N(C)[C@@H](CC(C)C)C(=O)N(C)[C@@H](C(C)C)C(=O)N1C` [Compound 2.5.6, 3-[D-Ala]-4-[(2S,3R)-4-((2S,5S)-2,5-dimethylmorpholino)-3-methyl-2-(methylamino)butanoyl]-cyclosporin] (cyclo(A[dA][NMeL][NMeL][NMeV][MeBmt][Abu][dNMeA][X31]V[NMeL])), the “CypA Kd” value (cyclophilin A (CypA)) was 5.0, the “CypB Kd” value (cyclophilin B (CypB)) was 2.7 and the CypF Kd (CypF) was 2.5 nM. The IC50 [1, 4] was 35 nM, the IC50 [2] was 3400 nM and the IC50 [3] was 2600 nM.

For `C/C=C/C[C@@H](C)[C@@H](O)[C@H]1C(=O)N[C@@H](CC)C(=O)N(C)[C@H](C)C(=O)N(C)[C@@H]([C@@H](C)CN2CCN3C(=O)OCC3C2)C(=O)N[C@@H](C(C)C)C(=O)N(C)[C@@H](CC(C)C)C(=O)N[C@@H](C)C(=O)N[C@H](C)C(=O)N(C)[C@@H](CC(C)C)C(=O)N(C)[C@@H](CC(C)C)C(=O)N(C)[C@@H](C(C)C)C(=O)N1C` (stereo partly drawn) [Compound 2.17.10, 3-[D-Ala]-4-[(2S,3S)-3-methyl-2-(methylamino)-4-((S)-3-oxotetrahydro-1H-oxazolo[3,4-a]pyrazin-7(3H)-yl)butanoyl]-cyclosporin] (cyclo(A[dA][NMeL][NMeL][NMeV][MeBmt][Abu][dNMeA][X38]V[NMeL])), the “CypA Kd” value (cyclophilin A (CypA)) was 0.6, the “CypB Kd” value (cyclophilin B (CypB)) was 0.5 and the CypF Kd (CypF) was 0.4 nM. The IC50 [1, 4] was 31 nM, the IC50 [2] was 15000 nM and the IC50 [3] was 1400 nM.

`C/C=C/C[C@@H](C)[C@@H](O)[C@H]1C(=O)N[C@@H](CC)C(=O)N(C)[C@H](C)C(=O)N(C)[C@@H]([C@H](C)CN2CCC3(CC2)OCCO3)C(=O)N[C@@H](C(C)C)C(=O)N(C)[C@@H](CC(C)C)C(=O)N[C@@H](C)C(=O)N[C@H](C)C(=O)N(C)[C@@H](CC(C)C)C(=O)N(C)[C@@H](CC(C)C)C(=O)N(C)[C@@H](C(C)C)C(=O)N1C` [Compound 2.5.28, 3-[D-Ala]-4-[(2S,3R)-3-methyl-2-(methylamino)-4-(1,4-dioxa-8-azaspiro[4.5]decan-8-yl)butanoyl]-cyclosporin] (cyclo(A[dA][NMeL][NMeL][NMeV][MeBmt][Abu][dNMeA][X35]V[NMeL])) was tested, and the “CypA Kd” value (cyclophilin A (CypA)) was 1.4, the “CypB Kd” value (cyclophilin B (CypB)) was 0.8 and the CypF Kd (CypF) was 0.8 nM. For the same molecule, the IC50 [1, 4] was 17 nM, the IC50 [2] was 6100 nM and the IC50 [3] was 2100 nM.

`C/C=C/C[C@@H](C)[C@@H](O)[C@H]1C(=O)N[C@@H](CC)C(=O)N(C)[C@H](C)C(=O)N(C)[C@@H]([C@H](C)COCC(=O)N2CCN(C3CCOCC3)CC2)C(=O)N[C@@H](C(C)C)C(=O)N(C)[C@@H](CC(C)C)C(=O)N[C@@H](C)C(=O)N[C@H](C)C(=O)N(C)[C@@H](CC(C)C)C(=O)N(C)[C@@H](CC(C)C)C(=O)N(C)[C@@H](C(C)C)C(=O)N1C` [Compound 2.6.2, 3-[D-Ala]-4-[(2S,3S)-4-(2-(4-cyclohexylpiperazin-1-yl)-2-oxoethoxy)-3-methyl-2-(methylamino)butanoyl]-cyclosporin] (cyclo([MeBmt][Abu][dNMeA][X27]V[NMeL]A[dA][NMeL][NMeL][NMeV])) was tested, and the “CypA Kd” value (cyclophilin A (CypA)) was 1.3, the “CypB Kd” value (cyclophilin B (CypB)) was 0.7 and the CypF Kd (CypF) was 0.6 nM. It also gave an IC50 [1] of 140 nM, an IC50 [2] of 17300 nM and an IC50 [3] of 3500 nM.

`C/C=C/C[C@@H](C)[C@@H](O)[C@H]1C(=O)N[C@@H](CC)C(=O)N(C)[C@H](C)C(=O)N(C)[C@@H]([C@H](C)CN2CCN(C(C)C)CC2)C(=O)N[C@@H](C(C)C)C(=O)N(C)[C@@H](CC(C)C)C(=O)N[C@@H](C)C(=O)N[C@H](C)C(=O)N(C)[C@@H](CC(C)C)C(=O)N(C)[C@@H](CC(C)C)C(=O)N(C)[C@@H](C(C)C)C(=O)N1C` [Compound 2.5.12, 3-[D-Ala]-4[(2S,3R)-2-Amino-4-(4-isopropyl-piperazin-1-yl)-butanoyl]-cyclosporin] (cyclo(A[dA][NMeL][NMeL][NMeV][MeBmt][Abu][dNMeA][X41]V[NMeL])) was tested, and the “CypA Kd” value (cyclophilin A (CypA)) was 1.0, the “CypB Kd” value (cyclophilin B (CypB)) was 0.7 and the CypF Kd (CypF) was 0.4 nM. For the same molecule, the IC50 [1, 4] was 44 nM, the IC50 [2] was 3100 nM and the IC50 [3] was 2440 nM.
